Assay results published in article PMC10823733, “Promising antibacterial efficacy of arenicin peptides against the emerging opportunistic pathogen Mycobacterium abscessus” (Journal of Biomedical Science, 2024).
Where two headings read alike, the source gives them in different places. Positions of bridges follow the written chain, without caps; N, C: chain ends. Non-standard residues stand in square brackets, D forms with d. Residues, ends and D or L forms follow the SMILES beside them. Abu = CC[C@H](N)C(=O)O

Assays:
[1] = type: cell-based, human
Procedure: (§1) The toxicity of each peptide was evaluated on human cell lines using a resazurin assay as previously described. Human lung epithelial cells BEAS-2B (ATCC CRL-9609), liver cells HepG2 (ATCC HB-8065), and kidney cells A498 (ATCC HTB-44) were used. All cells were cultured in Dulbecco's modified essential medium (DMEM) supplemented with 10% heat-inactivated fetal calf serum (FBS, Thermo Fisher Scientific), and 1% L-glutamine (Thermo Fisher Scientific) (DMEM^FBS) at 37 °C in a 5% CO2 incubator to subconfluent concentrations. Cells were detached with trypsin–EDTA solution (Thermo Fisher Scientific), and around 1 × 10^4 cells/well were seeded in 96-well flat-bottom microplates (Greiner Bio-One) with a lid, and cultured for additional 48–72 h at 37 °C and 5% CO2 until cell confluence. The medium was removed, and 100 µL of serial two-fold dilutions of the peptides in DMEM^FBS were added to each well. Following a 48 h-incubation period at 37 °C and 5% CO2, cell viability was evaluated using the resazurin assay as described above. Fluorescence of the resazurin metabolite resorufin (λex/λem = 530/590 nm) was measured after 2 h incubation at 37 °C and 5% CO2 in the dark, with a microplate reader (Biotek, Synergy Mx, Colmar, France). The cytotoxic concentration of peptide leading to 50% cell death as compared to the control was defined as the CC50, and was determined by fitting the RFU% sigmoidal dose–response curves in Kaleidagraph 4.2 software (Synergy Software). All experiments were conducted in triplicate.

[2] = Cytotoxic assay on human cells (resazurin); type: cell-based; conditions: A498, 48 h exposure
Procedure: as §1

[3] = type: cell-based, human; remark: listed apart in the source
Procedure: as §1

[4] = system: M. abscessus CIP 104536 T S variant; assay: microbe, parasite or virus in culture; type: cell-based, Mycobacterium abscessus
Procedure: (§2) Mycobacterium abscessus S and R strains (CIP 104536^ T) were grown in Middlebrook 7H9 medium supplemented with 0.05% (v/v) Tween 80, 0.2% (v/v) glycerol and 10% (v/v) oleic acid–albumin–dextrose–catalase (OADC enrichment; BD Difco) (7H9-S^OADC) at 37 °C under stirring (200 rpm). We used Ar-1 (RWC^3VYAYVRVRGVLVRYRRC^20W) and Ar-1-Abu, in which the cysteines in position 3 and 20 were replaced by alpha-amino-n-butyric acid (Abu) residues. We also tested Ar-2 (RWC^3VYAYVRIRGVLVRYRRC^20W), Ar-2-Abu (cysteines 3 and 20 replaced), Ar-3 (GFC^3WYVC^7VYRNGVRVC^16YRRC^20N), Ar-3-Abu (all four cysteines were replaced by Abu), Ar-3(3–20) (cysteines 7 and 16 replaced), and Ar-3(7–16) (cysteines 3 and 20 replaced). All arenicins and arenicin-Abu derivatives were obtained from GenScript (Piscataway, NJ, USA) with purity higher than 95%.
(§3) For determining the antimicrobial activity of the different peptides, the Middlebrook 7H9 broth microdilution method was used in sterile 96-well flat-bottom Greiner Bio-One polypropylene microplates with lid (Thermo Fisher Scientific) using the resazurin microtiter assay (REMA). Briefly, Mycobacterium abscessus was cultured up to mid log-phase (OD600 ~ 1.5–2) and diluted to a cell density of 5 × 10^6 cells/mL in 7H9-S^OADC. Then, 100 µL of this above inoculum was distributed to each well containing serial two-fold dilutions of arenicin, arenicin derivative or controls to a final volume of 200 µL. Growth controls containing no peptide (i.e., bacteria only = B), inhibition controls containing 50 µg/mL kanamycin (Euromedex, Souffelweyersheim, France) and sterility controls (i.e., medium only) without bacteria were included. After 5 days incubation at 37° C in a humidity chamber to prevent evaporation, 20 µL of a 0.025% (w/v) resazurin solution was added to each well. The microplate was re-incubated until appearance of a color change from blue to pink in the control well (i.e., bacteria without antibiotics). Fluorescence of the metabolite resorufin (λex/λem = 530/590 nm) was measured using a Tecan Spark 10 M ™ multimode microplate reader (Tecan Group Ltd, France). Relative fluorescence units (RFU) were defined as: RFU% = (test well FU/mean FU of control B wells) × 100. MIC50 and MIC90 values were determined by fitting the RFU% sigmoidal dose–response curves in Kaleidagraph 4.2 software (Synergy Software, Reading, PA). The concentration of peptide leading to 50% and 90% inhibition of M. abscessus growth was defined as the MIC50 and MIC90, respectively. All experiments were performed independently at least three times.

human erythrocytes = type: cell-based
Procedure: The hemolytic activity of each peptide was determined as previously described. Briefly, human erythrocytes (red blood cells, hRBC; Divbioscience, Ulvenhout, Netherlands) were washed 2-times with sterile phosphate buffered saline (PBS; Thermo Fisher Scientific) and pelleted by centrifugation at 800 rpm for 5 min; then resuspended in DMEM^FBS to a final erythrocyte concentration of 8% (v/v). Then, 100 µL of this hRBC solution was distributed to each well of sterile 96-well flat-bottom microplates (Greiner Bio-One) containing serial two-fold dilutions of arenicin, arenicin-Abu derivative or controls in DMEM^FBS to a final volume of 200 µL. After 1 h incubation at 37 °C, microplates were centrifuged at 800 rpm for 5 min. Then, 100 µL of supernatant were carefully transferred to a new 96-well microplate, and OD405 corresponding to the release of hemoglobin was measured using a microplate reader (Biotek, Synergy Mx, Colmar, France). DMEM^FBS and Triton-X100 at 0.1% (v/v) were used as negative (i.e., 0% hemolysis) and positive (i.e., 100% hemolysis) controls, respectively. The concentration of peptide leading to 10% and 50% of hemolysis compared to the positive control was defined as the HC10 and HC50, respectively, and was determined by fitting the dose–response curves in Kaleidagraph 4.2 software (Synergy Software). All experiments were done in triplicate.

[5] = system: M. abscessus CIP 104536 T R variant; assay: microbe, parasite or virus in culture; type: cell-based, Mycobacterium abscessus
Procedure: as §2, §3

[6] = S variant, 50% inhibition of in vitro growth, REMA, 5 days
[7] = S variant, 90% inhibition of in vitro growth, REMA, 5 days
[8] = Mycobacteroides abscessus, CIP104536, 120 h

CC(C)[C@@H]1NC(=O)CNC(=O)[C@H](CC(N)=O)NC(=O)[C@H](CCCNC(=N)N)NC(=O)[C@H](Cc2ccc(O)cc2)NC(=O)[C@H](C(C)C)NC(=O)[C@@H]2CSSC[C@H](NC(=O)[C@H](C(C)C)NC(=O)[C@H](CCCNC(=N)N)NC1=O)C(=O)N[C@@H](Cc1ccc(O)cc1)C(=O)N[C@@H](CCCNC(=N)N)C(=O)N[C@@H](CCCNC(=N)N)C(=O)N[C@H](C(=O)N[C@@H](CC(N)=O)C(=O)O)CSSC[C@H](NC(=O)[C@H](Cc1ccccc1)NC(=O)CN)C(=O)N[C@@H](Cc1c[nH]c3ccccc13)C(=O)N[C@@H](Cc1ccc(O)cc1)C(=O)N[C@@H](C(C)C)C(=O)N2 [Ar-3] (H-GFCWYVCVYRNGVRVCYRRCN-OH; disulfide 3-20, 7-16)
CC50 [1]: > 100 µM
CC50 [2]: 46.7 ± 1.7 µM
CC50 [3]: > 100 µM
MIC50 [4, 6]: 5.3 µM
MIC90 [4, 7]: 12.2 µM
HC10 (human erythrocytes; red cells of human, 1 h): 30.3 ± 2.5 µM
HC50 (human erythrocytes; red cells of human, 1 h): > 100 µM

CC[C@H](NC(=O)[C@H](CCCNC(=N)N)NC(=O)[C@H](CCCNC(=N)N)NC(=O)[C@H](Cc1ccc(O)cc1)NC(=O)[C@@H]1CSSC[C@H](NC(=O)[C@@H](NC(=O)[C@H](Cc2ccc(O)cc2)NC(=O)[C@H](Cc2c[nH]c3ccccc23)NC(=O)[C@H](CC)NC(=O)[C@H](Cc2ccccc2)NC(=O)CN)C(C)C)C(=O)N[C@@H](C(C)C)C(=O)N[C@@H](Cc2ccc(O)cc2)C(=O)N[C@@H](CCCNC(=N)N)C(=O)N[C@@H](CC(N)=O)C(=O)NCC(=O)N[C@@H](C(C)C)C(=O)N[C@@H](CCCNC(=N)N)C(=O)N[C@@H](C(C)C)C(=O)N1)C(=O)N[C@@H](CC(N)=O)C(=O)O [Ar-3(7–16)] (H-GF[Abu]WYVCVYRNGVRVCYRR[Abu]N-OH; disulfide 7-16)
CC50 [1]: > 100 µM
CC50 [2]: 37.7 ± 1.2 µM
CC50 [3]: > 100 µM
HC10 (human erythrocytes; red cells of human, 1 h): 41.1 ± 4.3 µM
HC50 (human erythrocytes; red cells of human, 1 h): > 100 µM

CC[C@H](C)[C@@H]1NC(=O)[C@H](CCCNC(=N)N)NC(=O)[C@H](C(C)C)NC(=O)[C@H](Cc2ccc(O)cc2)NC(=O)[C@H](C)NC(=O)[C@H](Cc2ccc(O)cc2)NC(=O)[C@H](C(C)C)NC(=O)[C@@H](NC(=O)[C@H](Cc2c[nH]c3ccccc23)NC(=O)[C@@H](N)CCCNC(=N)N)CSSC[C@@H](C(=O)N[C@@H](Cc2c[nH]c3ccccc23)C(=O)O)NC(=O)[C@H](CCCNC(=N)N)NC(=O)[C@H](CCCNC(=N)N)NC(=O)[C@H](Cc2ccc(O)cc2)NC(=O)[C@H](CCCNC(=N)N)NC(=O)[C@H](C(C)C)NC(=O)[C@H](CC(C)C)NC(=O)[C@H](C(C)C)NC(=O)CNC(=O)[C@H](CCCNC(=N)N)NC1=O [Ar-2] (H-RWCVYAYVRIRGVLVRYRRCW-OH; disulfide 3-20)
CC50 [1]: > 100 µM
CC50 [2]: 37.7 ± 1.1 µM
CC50 [3]: > 100 µM
HC50 (human erythrocytes): 29.2 µM
HC10 (human erythrocytes; red cells of human, 1 h): 4.9 ± 0.7 µM

CC[C@H](NC(=O)[C@H](CCCNC(=N)N)NC(=O)[C@H](CCCNC(=N)N)NC(=O)[C@H](Cc1ccc(O)cc1)NC(=O)[C@H](CCCNC(=N)N)NC(=O)[C@@H](NC(=O)[C@H](CC(C)C)NC(=O)[C@@H](NC(=O)CNC(=O)[C@H](CCCNC(=N)N)NC(=O)[C@@H](NC(=O)[C@H](CCCNC(=N)N)NC(=O)[C@@H](NC(=O)[C@H](Cc1ccc(O)cc1)NC(=O)[C@H](C)NC(=O)[C@H](Cc1ccc(O)cc1)NC(=O)[C@@H](NC(=O)[C@H](CC)NC(=O)[C@H](Cc1c[nH]c2ccccc12)NC(=O)[C@@H](N)CCCNC(=N)N)C(C)C)C(C)C)[C@@H](C)CC)C(C)C)C(C)C)C(=O)N[C@@H](Cc1c[nH]c2ccccc12)C(=O)O [Ar-2-Abu] (H-RW[Abu]VYAYVRIRGVLVRYRR[Abu]W-OH)
CC50 [1]: > 100 µM
CC50 [2]: 92.1 ± 2.3 µM
CC50 [3]: > 100 µM
HC10 (human erythrocytes; red cells of human, 1 h): 15.4 ± 1.0 µM
HC50 (human erythrocytes; red cells of human, 1 h): > 100 µM

CC[C@H](NC(=O)[C@H](CCCNC(=N)N)NC(=O)[C@H](CCCNC(=N)N)NC(=O)[C@H](Cc1ccc(O)cc1)NC(=O)[C@H](CC)NC(=O)[C@@H](NC(=O)[C@H](CCCNC(=N)N)NC(=O)[C@@H](NC(=O)CNC(=O)[C@H](CC(N)=O)NC(=O)[C@H](CCCNC(=N)N)NC(=O)[C@H](Cc1ccc(O)cc1)NC(=O)[C@@H](NC(=O)[C@H](CC)NC(=O)[C@@H](NC(=O)[C@H](Cc1ccc(O)cc1)NC(=O)[C@H](Cc1c[nH]c2ccccc12)NC(=O)[C@H](CC)NC(=O)[C@H](Cc1ccccc1)NC(=O)CN)C(C)C)C(C)C)C(C)C)C(C)C)C(=O)N[C@@H](CC(N)=O)C(=O)O [Ar-3-Abu] (H-GF[Abu]WYV[Abu]VYRNGVRV[Abu]YRR[Abu]N-OH)
CC50 [1]: > 100 µM
CC50 [2]: 36.6 ± 0.9 µM
CC50 [3]: > 100 µM
MIC50 ([5]; R variant, 50% inhibition of in vitro growth, REMA, 5 days): > 100 µM
MIC90 ([5]; R variant, 90% inhibition of in vitro growth, REMA, 5 days): > 100 µM
MIC50 [4, 6]: > 100 µM
MIC90 [4, 7]: > 100 µM
HC10 (human erythrocytes; red cells of human, 1 h): 39.3 ± 3.2 µM
HC50 (human erythrocytes; red cells of human, 1 h): > 100 µM

NCC[C@H](O)C(=O)N[C@@H]1C[C@H](N)[C@@H](O[C@H]2O[C@H](CN)[C@@H](O)[C@H](O)[C@H]2O)[C@H](O)[C@H]1O[C@H]1O[C@H](CO)[C@@H](O)[C@H](N)[C@H]1O [AMK, amikacin, reference compound]
MIC50 [5, 8]: 7.4 ± 0.26 µM
MIC90 [5, 8]: 10.1 µM
MIC50 [4, 8]: 3.9 ± 0.19 µM
MIC90 [4, 8]: 5.8 µM

CC[C@@H]1NC(=O)[C@H](C(C)C)NC(=O)[C@H](CCCNC(=N)N)NC(=O)[C@H](C(C)C)NC(=O)CNC(=O)[C@H](CC(N)=O)NC(=O)[C@H](CCCNC(=N)N)NC(=O)[C@H](Cc2ccc(O)cc2)NC(=O)[C@H](C(C)C)NC(=O)[C@H](CC)NC(=O)[C@H](C(C)C)NC(=O)[C@H](Cc2ccc(O)cc2)NC(=O)[C@H](Cc2c[nH]c3ccccc23)NC(=O)[C@@H](NC(=O)[C@H](Cc2ccccc2)NC(=O)CN)CSSC[C@@H](C(=O)N[C@@H](CC(N)=O)C(=O)O)NC(=O)[C@H](CCCNC(=N)N)NC(=O)[C@H](CCCNC(=N)N)NC(=O)[C@H](Cc2ccc(O)cc2)NC1=O [Ar-3(3–20)] (H-GFCWYV[Abu]VYRNGVRV[Abu]YRRCN-OH; disulfide 3-20)
CC50 [1]: > 100 µM
CC50 [2]: 42 ± 1.3 µM
CC50 [3]: > 100 µM
MIC50 [4, 6]: 48.3 µM
MIC90 [4, 7]: > 100 µM
hemolytic activity on human erythrocytes (in words, considering HC10) (human erythrocytes): totally inactive
HC10 (human erythrocytes; red cells of human, 1 h): > 100 µM
HC50 (human erythrocytes; red cells of human, 1 h): > 100 µM
